Experiment [1] relates to phosphorylation of Cdc2 Y15 (Wee1 substrate) in A427 cells. As to the kind of experiment: Phosphorylated Cdc2 MSD Electrochemiluminescence Assay. The experiment is classed as cell-based. A digest of the protocol:
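Read-out: percent residual phospho-Cdc2 Y15 relative to DMSO and positive-control Wee1 inhibitor, measured by MSD electrochemiluminescence capture/detection antibody assay in cell lysates. A427 cells received duplicate 3-fold compound dilution series 20 h post-seeding, with 6 h total incubation at 37 °C.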

In experiment [2] the target is T1, Wee1 kinase domain (Homo sapiens, UniProt P30291).
T1 construct: Wee1 kinase domain was purchased from Carna (catalog #05-177); purchased Carna 05-177
T1 sequence (P30291 299-569 limits assumed): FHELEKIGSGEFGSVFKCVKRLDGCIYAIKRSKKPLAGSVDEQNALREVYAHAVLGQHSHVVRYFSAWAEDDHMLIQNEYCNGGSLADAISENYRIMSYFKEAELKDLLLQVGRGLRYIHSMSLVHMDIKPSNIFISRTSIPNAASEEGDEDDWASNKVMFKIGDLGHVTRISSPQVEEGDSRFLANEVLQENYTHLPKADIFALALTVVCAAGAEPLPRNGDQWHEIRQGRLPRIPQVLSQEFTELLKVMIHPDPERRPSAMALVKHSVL
Kind of experiment: Wee1 Kinase Biochemical Assay (ADP-Glo). The settings on record: 15 uM ATP. A digest of the protocol:
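ADP-Glo luminescence readout of ADP produced by 1 nM kinase domain phosphorylating Poly(Lys,Tyr 4:1) (2 ng/mL) at 15 uM ATP. Reaction ran 4 h, 25 °C, in Tris/MgCl2 buffer with BSA and DTT. Inhibition scaled between DMSO (high) and saturating control inhibitor (low).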
In general terms: In ADP-Glo the light output rises with the ADP produced.

[3] abbreviates: Homo sapiens, A-427, class symbols, read-out: A427 pCDC2 MSD IC50.
Setting [4] is: class symbols, 1 nM Wee1 enzyme, 4 hours at 25° C.

Where two headings read alike, the source gives them in different places.

Turning to `CN1CCC[C@H]1c1cccc(N2c3nc(Nc4ccn(C5CCOCC5)c(=O)c4)ncc3[C@@]3(C)COC(C)(C)C[C@@H]23)n1` (single isomer, unassigned) [Example 393], the half-inhibitory concentration (IC50) (usually the point on the concentration scale where inhibition reaches its midpoint) is 1000 to 10000 nM in experiment [1] (Homo sapiens, A-427, pCDC2 MSD) and under 10 nM in experiment [2] (Wee1 kinase domain, ADP-Glo).
Take `CC1(C)C[C@H]2N(c3cccc([C@H]4CCCN4)n3)c3nc(Nc4ccn(C5CCOCC5)c(=O)c4)ncc3[C@@]2(C)CO1` (single isomer, unassigned) [Example 394]: the 50% inhibitory concentration (IC50) in experiment [1] (Homo sapiens, A-427, pCDC2 MSD) was 1000 to 10000 nM; in experiment [2] (Wee1 kinase domain, ADP-Glo), under 10 nM.
With `CN1CCC[C@@H]1c1cccc(N2c3nc(Nc4ccn(C5CCOCC5)c(=O)c4)ncc3[C@@]3(C)COC(C)(C)C[C@@H]23)n1` (single isomer, unassigned) [Example 395], the IC50 in experiment [1] (Homo sapiens, A-427, pCDC2 MSD) was 100 to 1000 nM; in experiment [2] (Wee1 kinase domain, ADP-Glo), under 10 nM.
With `CC1(C)C[C@H]2N(c3cccc(N=S(C)(C)=O)n3)c3nc(NC(=O)[C@@H]4C[C@H]4c4ccccc4)ncc3[C@@]2(C)CO1` (single isomer, unassigned) [Example 396], the IC50 was 100 to 1000 nM in experiment [1] (Homo sapiens, A-427, pCDC2 MSD) and under 10 nM in experiment [2] (Wee1 kinase domain, ADP-Glo).
As to `CC1(C)C[C@H]2N(c3cccc(N=S(C)(C)=O)n3)c3nc(NC(=O)[C@H]4C[C@@H]4c4ccccc4)ncc3[C@@]2(C)CO1` (single isomer, unassigned) [Example 397], the IC50 in experiment [1] (pCDC2 MSD) is 100 to 1000 nM; in experiment [2] (Wee1 kinase domain, ADP-Glo), under 10 nM.
In the case of `CC1(C)C[C@H]2N(c3cccc(N=S(C)(C)=O)n3)c3nc(NC(=O)C4CC4)ncc3[C@@]2(C)CO1` (single isomer, unassigned) [Example 399], the half-inhibitory concentration (IC50) in experiment [1] (setting [3]) was 100 to 1000 nM; in experiment [2] (setting [4]), under 10 nM.
As for `CC1(C)C[C@H]2N(c3cccc(N=S4(=O)CCCC4)n3)c3nc(NC(=O)C4CC4)ncc3[C@@]2(C)CO1` (single isomer, unassigned) [Example 400], the IC50 is 100 to 1000 nM in experiment [1] (setting [3]) and under 10 nM in experiment [2] (setting [4]).
In the case of `CC1(C)C[C@H]2N(c3cccc(N=S(C)(C)=O)n3)c3nc(NC(=O)[C@@H]4C[C@H]4c4cccnc4)ncc3[C@@]2(C)CO1` (single isomer, unassigned) [Example 401], the IC50 in experiment [1] (setting [3]) is 100 to 1000 nM; in experiment [2] (setting [4]), under 10 nM.
For `CC1(C)C[C@H]2N(c3cccc(N=S(C)(C)=O)n3)c3nc(NC(=O)[C@H]4C[C@@H]4c4cccnc4)ncc3[C@@]2(C)CO1` (single isomer, unassigned) [Example 402], the IC50 was in the range of 1000 to 10000 nM in experiment [1] (setting [3]) and 10 to 100 nM in experiment [2] (setting [4]).
Take `Cn1cc([C@@H]2C[C@H]2C(=O)Nc2ncc3c(n2)N(c2cccc(N=S(C)(C)=O)n2)[C@@H]2CC(C)(C)OC[C@]32C)cn1` (single isomer, unassigned) [Example 403]: the results for the IC50 in experiment [1] (setting [3]) and in experiment [2] (setting [4]) were 100 to 1000 nM and under 10 nM, respectively.
As for `Cn1cc([C@H]2C[C@@H]2C(=O)Nc2ncc3c(n2)N(c2cccc(N=S(C)(C)=O)n2)[C@@H]2CC(C)(C)OC[C@]32C)cn1` (single isomer, unassigned) [Example 406], the half-inhibitory concentration (IC50) in experiment [1] (setting [3]) is 100 to 1000 nM; in experiment [2] (setting [4]), under 10 nM.
For `Cn1cc(C(=O)Nc2ncc3c(n2)N(c2cccc(N=S(C)(C)=O)n2)[C@@H]2CC(C)(C)OC[C@]32C)cn1` (single isomer, unassigned) [Example 408], the IC50 in experiment [1] (setting [3]) is 1000 to 10000 nM; in experiment [2] (setting [4]) it was under 10 nM.
Turning to `CC1(C)C[C@H]2N(c3cccc(N=S(C)(C)=O)n3)c3nc(NC(=O)[C@H]4C[C@@H]4C4CCOCC4)ncc3[C@@]2(C)CO1` (single isomer, unassigned) [Example 411], the half-inhibitory concentration (IC50) in experiment [1] (setting [3]) was 1000 to 10000 nM; in experiment [2] (setting [4]) it was under 10 nM.
As to `CC1(C)C[C@H]2N(c3cccc(N=S(C)(C)=O)n3)c3nc(NC(=O)[C@@H]4C[C@H]4C4CCOCC4)ncc3[C@@]2(C)CO1` (single isomer, unassigned) [Example 412], the IC50 in experiment [1] (setting [3]) was at least 10000 nM; in experiment [2] (setting [4]), under 10 nM.
For `CN1C[C@H]2C[C@@H]1CN2c1ccc(Nc2ncc3c(n2)N(c2cccc(C(C)(C)O)n2)[C@@H]2CC(C)(C)OC[C@]32C)cc1` (single isomer, unassigned) [Example 413] the same measures were 100 to 1000 nM and under 10 nM.

These data come from patent publication US20260166039A1 (SCHRÖDINGER, INC., priority 2022, published 2026).
